The compounds below were run against Kynurenine/alpha-aminoadipate aminotransferase, mitochondrial (Homo sapiens, UniProt Q8N5Z0) (assay: Inhibitory Assay: To a reaction mixture (45 μL) containing 3.0 μmol/L kynurenine, 10 μmol/L pyridoxal phosphate, 2.0 ng/μL human recombinant KAT-II, and 150 mmol/L tris(hydroxymethyl)aminomethane-acetate buffer (pH 8.0) was added a 10% dimethyl sulfoxide solution (5 μL) of each test compound prepared, and the mixture was reacted at 37° C. for 1 hr. After the reaction, 50% trichloroacetic acid (5 μL) was added to terminate the reaction.The resultant kynurenic acid was quantified as follows by high performance liquid chromatography. An enzyme reaction mixture was separated by an octadecylsilane reversed-phase column (SC-50DS, Eicom Corporation; mobile phase: 250 mmol/L zinc acetate, 50 mmol/L sodium acetate, and 5.0% acetonitrile (pH 6.2)) incubated at 30° C., and kynurenic acid was quantified using a fluorescence detector (RF-20Axs, Shimadzu Corporation) at excitation wavelength 354 nm, detection wavelength 460 nm. The analytical curve was drawn every time by an external standard method. Each test compound was tested by dual measurement at each concentration. The kynurenic acid level in the presence of a test compound at each concentration was converted into % relative to kynurenic acid resulting from a reaction with an enzyme alone as 100%, and the obtained values were fitted to S-curve to determine IC50.).
Kynurenine/alpha-aminoadipate aminotransferase, mitochondrial, sequence (Q8N5Z0 whole entry): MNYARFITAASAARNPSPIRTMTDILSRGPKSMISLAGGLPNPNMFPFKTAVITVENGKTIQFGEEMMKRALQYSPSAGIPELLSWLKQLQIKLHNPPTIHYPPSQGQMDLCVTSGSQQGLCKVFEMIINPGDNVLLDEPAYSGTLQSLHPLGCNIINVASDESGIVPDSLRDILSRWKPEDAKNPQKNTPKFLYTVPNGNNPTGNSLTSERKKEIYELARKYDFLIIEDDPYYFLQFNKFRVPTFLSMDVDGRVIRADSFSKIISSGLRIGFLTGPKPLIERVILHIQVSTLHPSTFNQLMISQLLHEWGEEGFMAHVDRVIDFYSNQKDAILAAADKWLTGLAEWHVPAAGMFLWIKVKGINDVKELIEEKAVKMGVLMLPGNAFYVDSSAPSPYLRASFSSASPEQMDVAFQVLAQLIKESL
`CC1(C)CN(c2ncnc3nc(N4CCC[C@@H]4C(=O)NCc4ccccc4)sc23)CCO1` gave an IC50 of 71 nM.
`COCCc1nc(N(C)C)c2sc(N3CCC[C@@H]3C(=O)NCc3ccccc3)nc2n1` gave an IC50 of 64 nM.
For `Cc1nc(N(C)C)c2sc(N3CCC[C@@H]3C(=O)NCc3ccccc3)nc2n1`, the IC50 was 50 nM.
For `CN(C)c1nc(C(F)(F)F)nc2nc(N3CCC[C@@H]3C(=O)NCc3ccccc3)sc12`, the IC50 was 27 nM.
In the case of `COCCOc1ncnc2nc(N3CCC[C@@H]3C(=O)NCc3ccccc3)sc12`, the IC50 is reported as 140 nM.
`O=C(NCc1ccccc1)[C@H]1CCCN1c1nc2ncnc(N3CCOCC3)c2s1` showed an IC50 of 47 nM.
In the case of `COCc1nc(N(C)C)c2sc(N3CCC[C@@H]3C(=O)NCc3ccccc3)nc2n1`, the IC50 is reported as 82 nM.
`CON(C)c1ncnc2nc(N3CCC[C@@H]3C(=O)NCc3ccccc3)sc12` gave an IC50 of 35 nM.

— ChEMBL document CHEMBL5728011, “Bicyclic heterocyclic compound” (2020)
